The numbers were not newly measured in patent US12383538B2, “Use of mTOR inhibitors for prevention of intestinal polyp growth and cancer” (priority 2013, dated 2025), which cites them from elsewhere.

This series relates to colorectal adenomas. As to conditions: adults with FAP, 6-month trial.

Take `Cc1ccc(-c2cc(C(F)(F)F)nn2-c2ccc(S(N)(=O)=O)cc2)cc1` [celecoxib]: the tolerability entry was “well tolerated”.
